Measurements as given in US20090105283A1, “3-HYDROQUINAZOLIN-4-ONE DERIVATIVES FOR USE AS STEAROYL CoA DESATURASE INHIBITORS” (priority 2007, published 2009).

biological target: T1, stearoyl-CoA desaturase (SCD) (Rattus norvegicus, UniProt P07308); test: SCD assay with rat liver microsomes ([3H]stearoyl CoA, adapted from Talamo and Bloch); assay type: biochemical; details: Table 1; rat liver microsomes 0.2 mg/ml assay final, [3H]stearoyl CoA substrate, 30 min preincubation, 45 min reaction, room temperature
T1 construct: The microsomes were quickly thawed and added to assay buffer so that a concentration of 0.4 mg/ml was achieved; from tissue
T1 sequence (P07308 1-358): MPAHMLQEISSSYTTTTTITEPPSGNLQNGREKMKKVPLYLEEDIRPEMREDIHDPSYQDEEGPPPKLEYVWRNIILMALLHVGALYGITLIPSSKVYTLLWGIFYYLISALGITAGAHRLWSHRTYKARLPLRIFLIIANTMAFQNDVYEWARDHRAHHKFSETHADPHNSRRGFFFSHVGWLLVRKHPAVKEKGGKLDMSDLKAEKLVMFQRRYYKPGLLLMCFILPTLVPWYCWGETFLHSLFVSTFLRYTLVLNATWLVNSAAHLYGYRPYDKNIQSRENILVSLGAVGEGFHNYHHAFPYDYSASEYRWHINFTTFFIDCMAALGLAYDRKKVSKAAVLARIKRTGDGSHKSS
Summary of the method: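 Liver microsomes came from diet-induced male Sprague Dawley rats and were used at 0.2 mg/ml final. Assay buffer was Tris pH 7.2 with NADH, ATP, CoA, MgCl2 and 0.1% BSA. Compounds were preincubated 30 min, then reacted 45 min at room temperature with [3H]stearoyl-CoA; after TCA stop and Bio-Bead cleanup, supernatant radioactivity was counted by scintillation.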

Structure (SMILES)	IC50 [nM]
O=C(Nc1ccc2ncn(CCc3ccc(Cl)cc3)c(=O)c2c1)OCc1ccccc1 [XVI, N-{3-[2-(4-chlorophenyl)ethyl]-4-oxo(3-hydroquinazolin-6-yl)}(phenylmethoxy)carboxamide]	470
CC(=O)OCC(=O)Nc1ccc2c(=O)n(Cc3ccc(Cl)c(F)c3)cnc2c1 [LXXVIII, (N-{3-[(4-chloro-3-fluorophenyl)methyl]-4-oxo-3-hydroquinazolin-7-yl}carbamoyl)methyl acetate]	1020
Cc1nc2ccc(NC(=O)OCc3ccccc3)cc2c(=O)n1Cc1ccc(Cl)c(Cl)c1 [VI, N-{3-[(3,4-dichlorophenyl)methyl]-2-methyl-4-oxo(3-hydroquinazolin-6-yl)}(phenylmethoxy)carboxamide]	20000
O=C(Nc1ccc2c(=O)n(Cc3ccc(Cl)c(F)c3)cnc2c1)OCc1ccccc1 [LXXXIII, N-{3-[(4-chloro-3-fluorophenyl)methyl]-4-oxo(3-hydroquinazolin-7-yl)}(phenylmethoxy)carboxamide]	210
COCCOC(=O)Nc1ccc2c(=O)n(Cc3ccc(Cl)c(Cl)c3)cnc2c1 [LXVII, N-{3-[(3,4-dichlorophenyl)methyl]-4-oxo(3-hydroquinazolin-7-yl)}(2-methoxyethoxy)carboxamide]	880
O=C(Nc1ccc2ncn(Cc3ccc(Cl)c(Cl)c3)c(=O)c2c1)OCCc1ccccc1 [LXXI, N-{3-[(3,4-dichlorophenyl)methyl]-4-oxo(3-hydroquinazolin-6-yl)}(2-phenylethoxy)carboxamide]	4380
CC(C)COC(=O)Nc1ccc2ncn(Cc3ccc(Cl)c(Cl)c3)c(=O)c2c1 [VII, N-{3-[(3,4-dichlorophenyl)methyl]-4-oxo(3-hydroquinazolin-6-yl)}(2-methylpropoxy)carboxamide]	7900
O=C(COc1cccnc1)Nc1ccc2c(=O)n(Cc3ccc(Cl)cc3)cnc2c1 [XLIX, N-{3-[(4-chlorophenyl)methyl]-4-oxo(3-hydroquinazolin-7-yl)}-2-(3-pyridyloxy)acetamide]	2500

Continued, values first:

IC50 [nM]	Structure (SMILES)
780	COc1ccccc1OCC(=O)Nc1ccc2ncn(Cc3ccc(Cl)c(Cl)c3)c(=O)c2c1 [XXV, N-{3-[(3,4-dichlorophenyl)methyl]-4-oxo(3-hydroquinazolin-6-yl)}-2-(2-methoxyphenoxy)acetamide]
2010	O=C(COc1cccc(F)c1)Nc1ccc2ncn(Cc3ccc(Cl)c(Cl)c3)c(=O)c2c1 [XXVII, N-{3-[(3,4-dichlorophenyl)methyl]-4-oxo(3-hydroquinazolin-6-yl)}-2-(3-fluorophenoxy)acetamide]
2100	O=C(COc1ccc(F)cc1)Nc1ccc2ncn(Cc3ccc(Cl)c(Cl)c3)c(=O)c2c1 [XVIII, N-{3-[(3,4-dichlorophenyl)methyl]-4-oxo(3-hydroquinazolin-6-yl)}-2-(4-fluorophenoxy)acetamide]
21000	O=C(COc1cccc2nsnc12)Nc1ccc2ncn(Cc3ccc(Cl)c(Cl)c3)c(=O)c2c1 [XXXV, 2-benzo[c]1,2,5-thiadiazol-4-yloxy-N-{3-[(3,4-dichlorophenyl)methyl]-4-oxo(3-hydroquinazolin-6-yl)}acetamide]
2410	O=C(CCc1ccccc1)Nc1ccc2ncn(Cc3ccc(Cl)c(Cl)c3)c(=O)c2c1 [II, N-{3-[(3,4-dichlorophenyl)methyl]-4-oxo(3-hydroquinazolin-6-yl)}-3-phenylpropanamide]
3450	Cc1cccc(C)c1OCC(=O)Nc1ccc2ncn(Cc3ccc(Cl)c(Cl)c3)c(=O)c2c1 [XXI, N-{3-[(3,4-dichlorophenyl)methyl]-4-oxo(3-hydroquinazolin-6-yl)}-2-(2,6-dimethylphenoxy)acetamide]

same assay, conditions: Table 2 (Example 21, procedures of Example 20); rat liver microsomes, [3H]stearoyl CoA substrate

IC50 [nM]	Structure (SMILES)
1400	O=C(Nc1ccc2ncn(Cc3cccc(C(F)(F)F)c3)c(=O)c2c1)OCc1ccccc1 [compound 40, benzyl 4-oxo-3-(3-(trifluoromethyl)benzyl)-3,4-dihydroquinazolin-6-ylcarbamate]
130	CC(=O)OCC(=O)Nc1ccc2c(=O)n(C(C)c3ccc(Cl)c(Cl)c3)cnc2c1 (stereo not drawn) [compound 10, 2-(3-(1-(3,4-dichlorophenyl)ethyl)-4-oxo-3,4-dihydroquinazolin-7-ylamino)-2-oxoethyl acetate]
1700	CC(=O)OCC(=O)Nc1ccc2ncn(Cc3ccc(F)c(Cl)c3)c(=O)c2c1 [compound 13, 2-(3-(3-chloro-4-fluorobenzyl)-4-oxo-3,4-dihydroquinazolin-6-ylamino)-2-oxoethyl acetate]
190	O=C(CO)Nc1ccc2ncn(Cc3ccc(Cl)c(C(F)(F)F)c3)c(=O)c2c1 [compound 7, N-(3-(4-chloro-3-(trifluoromethyl)benzyl)-4-oxo-3,4-dihydroquinazolin-6-yl)-2-hydroxyacetamide]
1400	CCC(c1ccc(Cl)c(Cl)c1)n1cnc2ccc(NC(=O)OCc3ccccc3)cc2c1=O (stereo not drawn) [compound 30, benzyl 3-(1-(3,4-dichlorophenyl)propyl)-4-oxo-3,4-dihydroquinazolin-6-ylcarbamate]
86	O=C(CO)Nc1ccc2c(=O)n(CCCOc3cc(Cl)ccc3Cl)cnc2c1 [compound 51, N-(3-(3-(2,5-dichlorophenoxy)propyl)-4-oxo-3,4-dihydroquinazolin-7-yl)-2-hydroxyacetamide]
490	O=C(CO)Nc1ccc2ncn(Cc3cccc(COc4cc(Cl)ccc4Cl)c3)c(=O)c2c1 [compound 61, N-(3-(3-((2,5-dichlorophenoxy)methyl)benzyl)-4-oxo-3,4-dihydroquinazolin-6-yl)-2-hydroxyacetamide]
